Columns and labels:
Assay in all cases: scanMAX kinase panel
Assay type in all cases: binding
Conditions in all cases: read-out: % Control; for remaining binding at 1 µM: 1000 nM
[1] = target: T1, RIPK5 (Homo sapiens, UniProt Q6XUX3)
T1 construct: purchased DiscoverX (scanMAX panel)
T1 sequence (Q6XUX3 1-929): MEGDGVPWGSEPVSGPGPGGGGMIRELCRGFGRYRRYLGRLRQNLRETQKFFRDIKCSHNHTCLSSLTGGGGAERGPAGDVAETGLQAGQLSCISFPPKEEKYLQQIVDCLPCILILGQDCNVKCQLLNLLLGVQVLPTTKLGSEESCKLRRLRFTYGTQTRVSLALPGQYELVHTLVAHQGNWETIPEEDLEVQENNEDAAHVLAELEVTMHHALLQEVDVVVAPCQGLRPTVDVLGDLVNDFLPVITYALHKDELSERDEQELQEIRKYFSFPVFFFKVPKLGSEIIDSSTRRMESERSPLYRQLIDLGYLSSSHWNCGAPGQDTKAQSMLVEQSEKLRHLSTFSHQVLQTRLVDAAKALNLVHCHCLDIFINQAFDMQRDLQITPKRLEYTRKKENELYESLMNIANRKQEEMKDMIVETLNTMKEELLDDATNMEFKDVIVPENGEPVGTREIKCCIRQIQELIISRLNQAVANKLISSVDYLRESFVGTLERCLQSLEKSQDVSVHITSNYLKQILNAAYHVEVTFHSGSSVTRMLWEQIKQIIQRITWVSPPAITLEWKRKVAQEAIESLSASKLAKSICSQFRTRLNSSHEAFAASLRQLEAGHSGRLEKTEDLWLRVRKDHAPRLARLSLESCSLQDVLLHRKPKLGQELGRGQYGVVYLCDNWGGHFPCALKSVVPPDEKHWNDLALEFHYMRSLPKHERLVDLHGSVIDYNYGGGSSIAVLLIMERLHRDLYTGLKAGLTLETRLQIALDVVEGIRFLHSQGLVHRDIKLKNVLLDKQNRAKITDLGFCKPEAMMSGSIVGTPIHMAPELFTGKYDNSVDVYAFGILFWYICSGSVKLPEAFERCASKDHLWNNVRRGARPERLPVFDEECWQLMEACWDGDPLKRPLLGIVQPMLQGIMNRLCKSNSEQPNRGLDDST
From the text: (§1) Supplemental Table S2. scanMAXSM Kinome Assay Results. Complete tabulated data of all 468 kinases from the panel, including
(§2) 403 wild-type and 65 mutant isoforms. […] Cmpd 11 and Cmpd 24

[2] = target: T2, RIOK2 (Homo sapiens, UniProt Q9BVS4)
T2 construct: purchased DiscoverX (scanMAX panel)
T2 sequence (Q9BVS4 whole entry): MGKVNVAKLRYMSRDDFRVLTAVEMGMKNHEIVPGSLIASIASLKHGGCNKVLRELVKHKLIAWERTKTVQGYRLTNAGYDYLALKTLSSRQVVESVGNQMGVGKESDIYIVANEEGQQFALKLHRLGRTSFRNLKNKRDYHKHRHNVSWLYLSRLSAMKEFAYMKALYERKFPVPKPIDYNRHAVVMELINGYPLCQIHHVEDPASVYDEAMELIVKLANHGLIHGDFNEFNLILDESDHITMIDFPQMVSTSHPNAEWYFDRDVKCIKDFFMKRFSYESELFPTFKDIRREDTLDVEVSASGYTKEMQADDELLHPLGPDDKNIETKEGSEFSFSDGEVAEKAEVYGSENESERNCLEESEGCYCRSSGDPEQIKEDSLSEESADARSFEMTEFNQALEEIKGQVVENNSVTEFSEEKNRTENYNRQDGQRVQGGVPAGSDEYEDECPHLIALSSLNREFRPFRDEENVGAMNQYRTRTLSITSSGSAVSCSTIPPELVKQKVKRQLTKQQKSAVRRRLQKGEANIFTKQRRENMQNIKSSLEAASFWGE
From the text: as §1, §2

[3] = target: T3, TESK1 (Homo sapiens, UniProt Q15569)
T3 construct: purchased DiscoverX (scanMAX panel)
T3 sequence (Q15569 whole entry): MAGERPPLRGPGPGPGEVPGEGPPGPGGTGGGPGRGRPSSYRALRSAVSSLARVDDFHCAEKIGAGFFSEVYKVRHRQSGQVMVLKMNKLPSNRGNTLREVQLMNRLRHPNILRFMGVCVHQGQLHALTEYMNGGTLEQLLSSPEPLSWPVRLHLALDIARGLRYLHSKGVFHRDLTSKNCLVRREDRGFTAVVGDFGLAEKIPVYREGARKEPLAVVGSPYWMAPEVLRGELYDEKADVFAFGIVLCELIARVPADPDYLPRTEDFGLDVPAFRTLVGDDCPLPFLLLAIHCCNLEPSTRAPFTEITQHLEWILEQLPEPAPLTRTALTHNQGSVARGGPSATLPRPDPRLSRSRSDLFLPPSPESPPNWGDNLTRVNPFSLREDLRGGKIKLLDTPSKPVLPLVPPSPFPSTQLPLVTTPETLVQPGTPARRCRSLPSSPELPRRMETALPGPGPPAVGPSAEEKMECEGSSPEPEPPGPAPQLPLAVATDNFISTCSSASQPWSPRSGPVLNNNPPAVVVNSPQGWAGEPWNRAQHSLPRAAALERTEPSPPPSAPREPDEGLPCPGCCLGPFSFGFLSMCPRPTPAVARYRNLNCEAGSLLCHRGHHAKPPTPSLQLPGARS
From the text: as §1, §2

[4] = target: T4, NEK5 (Homo sapiens, UniProt Q6P3R8)
T4 construct: purchased DiscoverX scanMAX
T4 sequence (Q6P3R8 1-708): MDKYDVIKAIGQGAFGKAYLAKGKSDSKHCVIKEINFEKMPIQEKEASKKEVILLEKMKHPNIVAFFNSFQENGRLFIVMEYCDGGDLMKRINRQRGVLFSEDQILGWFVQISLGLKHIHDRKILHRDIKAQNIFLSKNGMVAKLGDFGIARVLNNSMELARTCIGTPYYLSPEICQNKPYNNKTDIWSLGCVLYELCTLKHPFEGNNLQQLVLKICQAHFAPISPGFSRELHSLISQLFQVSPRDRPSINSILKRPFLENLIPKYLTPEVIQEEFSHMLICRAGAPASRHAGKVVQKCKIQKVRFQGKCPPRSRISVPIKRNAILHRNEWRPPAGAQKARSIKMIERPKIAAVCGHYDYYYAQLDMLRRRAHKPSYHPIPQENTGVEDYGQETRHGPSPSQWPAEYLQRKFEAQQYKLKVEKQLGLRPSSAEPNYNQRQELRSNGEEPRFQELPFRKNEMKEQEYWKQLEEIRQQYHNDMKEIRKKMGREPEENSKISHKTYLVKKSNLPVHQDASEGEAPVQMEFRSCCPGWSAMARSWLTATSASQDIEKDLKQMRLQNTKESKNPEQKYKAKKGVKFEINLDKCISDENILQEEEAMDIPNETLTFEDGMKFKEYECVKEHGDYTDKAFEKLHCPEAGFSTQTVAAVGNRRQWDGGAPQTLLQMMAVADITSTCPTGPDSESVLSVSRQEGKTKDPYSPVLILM
From the text: as §1, §2

[5] = target: T5, KIT(L576P) (Homo sapiens, UniProt P10721, L576P)
T5 construct: purchased DiscoverX scanMAX
T5 sequence (P10721 26-976 L576P): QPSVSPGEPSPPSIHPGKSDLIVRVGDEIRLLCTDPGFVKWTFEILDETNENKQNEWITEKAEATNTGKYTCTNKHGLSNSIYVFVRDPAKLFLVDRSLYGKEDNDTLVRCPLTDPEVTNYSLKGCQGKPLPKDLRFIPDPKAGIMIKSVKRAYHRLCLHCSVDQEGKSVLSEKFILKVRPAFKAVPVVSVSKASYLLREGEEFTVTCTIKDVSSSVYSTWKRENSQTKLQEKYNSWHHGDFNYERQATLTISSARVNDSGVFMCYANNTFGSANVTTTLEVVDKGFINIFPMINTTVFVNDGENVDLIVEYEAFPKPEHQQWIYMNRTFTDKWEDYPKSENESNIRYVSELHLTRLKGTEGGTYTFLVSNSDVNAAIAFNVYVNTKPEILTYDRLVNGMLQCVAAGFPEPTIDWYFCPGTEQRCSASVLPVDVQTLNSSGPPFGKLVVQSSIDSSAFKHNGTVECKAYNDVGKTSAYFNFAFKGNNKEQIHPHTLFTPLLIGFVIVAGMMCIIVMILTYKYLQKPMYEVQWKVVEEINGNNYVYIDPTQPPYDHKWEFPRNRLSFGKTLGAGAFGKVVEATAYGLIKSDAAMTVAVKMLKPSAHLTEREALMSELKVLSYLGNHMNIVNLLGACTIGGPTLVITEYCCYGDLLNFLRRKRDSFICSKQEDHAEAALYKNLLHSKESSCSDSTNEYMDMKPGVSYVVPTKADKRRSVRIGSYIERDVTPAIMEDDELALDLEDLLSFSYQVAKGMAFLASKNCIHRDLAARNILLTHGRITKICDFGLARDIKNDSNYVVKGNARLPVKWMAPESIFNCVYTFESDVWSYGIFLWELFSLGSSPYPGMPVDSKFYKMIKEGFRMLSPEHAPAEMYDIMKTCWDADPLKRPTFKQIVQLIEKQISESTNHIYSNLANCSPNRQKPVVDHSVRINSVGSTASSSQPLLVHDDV
From the text: as §1, §2

[6] = target: T6, FLT3(D835V) (Homo sapiens, UniProt P36888, D835V)
T6 construct: purchased DiscoverX scanMAX
T6 sequence (P36888 27-993 D835V): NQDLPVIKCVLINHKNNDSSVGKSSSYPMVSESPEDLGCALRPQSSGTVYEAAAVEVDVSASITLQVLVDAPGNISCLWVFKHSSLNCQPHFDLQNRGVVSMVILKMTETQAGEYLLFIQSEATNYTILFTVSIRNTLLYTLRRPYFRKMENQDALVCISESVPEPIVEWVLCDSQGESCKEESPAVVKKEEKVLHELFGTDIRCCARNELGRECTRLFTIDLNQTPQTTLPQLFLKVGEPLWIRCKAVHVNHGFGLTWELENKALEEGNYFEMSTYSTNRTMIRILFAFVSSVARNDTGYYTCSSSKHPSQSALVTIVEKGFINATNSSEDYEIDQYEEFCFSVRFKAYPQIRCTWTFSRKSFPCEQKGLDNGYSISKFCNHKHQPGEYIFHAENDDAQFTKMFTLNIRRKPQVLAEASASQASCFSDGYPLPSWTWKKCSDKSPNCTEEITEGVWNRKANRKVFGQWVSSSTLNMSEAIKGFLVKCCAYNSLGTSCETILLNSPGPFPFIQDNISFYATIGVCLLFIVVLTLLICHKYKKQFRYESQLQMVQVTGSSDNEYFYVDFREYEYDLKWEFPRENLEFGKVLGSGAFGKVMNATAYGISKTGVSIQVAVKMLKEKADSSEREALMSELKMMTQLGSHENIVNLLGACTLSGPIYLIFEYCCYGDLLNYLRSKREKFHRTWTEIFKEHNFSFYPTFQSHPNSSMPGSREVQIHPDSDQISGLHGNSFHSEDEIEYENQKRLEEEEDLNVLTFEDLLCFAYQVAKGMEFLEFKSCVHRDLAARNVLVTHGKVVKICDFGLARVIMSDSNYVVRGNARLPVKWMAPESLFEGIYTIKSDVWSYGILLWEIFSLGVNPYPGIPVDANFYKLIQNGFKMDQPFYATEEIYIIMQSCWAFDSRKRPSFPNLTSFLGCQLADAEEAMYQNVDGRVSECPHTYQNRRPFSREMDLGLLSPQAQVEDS
From the text: as §1, §2

[7] = target: T7, PIP5K1C (Homo sapiens, UniProt O60331)
T7 construct: purchased DiscoverX scanMAX
T7 sequence (O60331 whole entry): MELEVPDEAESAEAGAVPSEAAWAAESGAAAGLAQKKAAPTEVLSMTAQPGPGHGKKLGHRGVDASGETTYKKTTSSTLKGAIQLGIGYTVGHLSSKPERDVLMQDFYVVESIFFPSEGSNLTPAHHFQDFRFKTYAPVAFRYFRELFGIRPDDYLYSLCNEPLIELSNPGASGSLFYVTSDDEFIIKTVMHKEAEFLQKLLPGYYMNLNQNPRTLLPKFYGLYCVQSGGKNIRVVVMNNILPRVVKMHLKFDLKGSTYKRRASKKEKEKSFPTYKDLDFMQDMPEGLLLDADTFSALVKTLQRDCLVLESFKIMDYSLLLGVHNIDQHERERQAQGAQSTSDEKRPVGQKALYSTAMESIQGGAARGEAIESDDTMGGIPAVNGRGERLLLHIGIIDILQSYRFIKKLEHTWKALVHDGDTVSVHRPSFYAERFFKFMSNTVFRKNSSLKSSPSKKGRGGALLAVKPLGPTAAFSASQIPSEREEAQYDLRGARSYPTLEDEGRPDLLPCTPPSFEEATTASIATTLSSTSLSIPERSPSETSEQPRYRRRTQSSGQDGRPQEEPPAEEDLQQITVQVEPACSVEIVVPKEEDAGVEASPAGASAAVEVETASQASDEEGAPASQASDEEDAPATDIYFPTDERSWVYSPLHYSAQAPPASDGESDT
From the text: as §1, §2

SMILES	remaining binding at 1 µM [1] [%]	remaining binding at 1 µM [2] [%]	remaining binding at 1 µM [3] [%]	remaining binding at 1 µM [4] [%]	remaining binding at 1 µM [5] [%]	remaining binding at 1 µM [6] [%]	remaining binding at 1 µM [7] [%]	remaining binding at 0.1 µM ([1]; 100 nM) [%]	remaining binding at 0.1 µM ([2]; 100 nM) [%]	remaining binding at 0.1 µM ([3]; 100 nM) [%]	remaining binding at 0.1 µM ([4]; 100 nM) [%]	remaining binding at 0.1 µM ([5]; 100 nM) [%]	remaining binding at 0.1 µM ([6]; 100 nM) [%]	remaining binding at 0.1 µM ([7]; 100 nM) [%]
Cc1cc(NC(=O)[C@H](O)c2cccc(F)c2)ccc1-c1cn(C)c2ncnc(N)c12 [Compound 11, (R)-N-(4-(4-amino-7-methyl-7H-pyrrolo[2,3-d]pyrimidin-5-yl)-3-methylphenyl)-2-(3-fluorophenyl)-2-hydroxy acetamide]	3.4	20	15	34	36	52	99							
Cc1nc(N)c2c(-c3ccc(NC(=O)[C@H](O)c4cccc(F)c4)cc3C)cn(C)c2n1 [Compound 24]	100	89	100	100	98	100	34							
Cc1nc(N)c2c(-c3ccc(NC(=O)[C@H](O)c4cccc(C(F)(F)F)c4)cc3C)cn(C)c2n1 [Compound 26]	100	92	99	96	2.6	8.5	91	100	91	97	100	85	100	100

Reference: article PMC9611727, “Optimization of a Novel Mandelamide-Derived Pyrrolopyrimidine Series of PERK Inhibitors” (Pharmaceutics, 2022)
